Assay results taken from patent US20140066385A1, “METHOD FOR TREATING CANCER BY COMBINED USE OF DRUGS” (Astellas Pharma Inc., priority 2011, published 2014).

Assays:
[1] = test system: human hormone-resistant prostatic cancer (PC-3); assay: Example 10: FK330 with docetaxel in PC-3 tumor-bearing mice; type: in vivo, nude mice; conditions: FK330 100 mg/kg bid p.o. + docetaxel 10 mg/kg/day i.v. (2 days each cycle)
Description: The dose of FK330 is expressed in terms of the weight of a simple substance (non-hydrate). Docetaxel (a docetaxel hydrate injectable preparation (Taxotere (trademark), for intravenous infusion)) was purchased from Sanofi-Aventis SA, and was used as docetaxel.
FK330 was suspended (20 mg/mL) in a 0.5% aqueous methyl cellulose solution (0.5% MC), and was orally administered. Docetaxel was prepared to a concentration of 20 mg/mL with 95% ethanol, and then diluted to 1 mg/mL with physiological saline for injection (Otsuka Pharmaceutical Group) immediately before administration and intravenously administered through the tail vein.
Human hormone-resistant prostatic cancer-derived PC-3 (CRL-1435) was obtained from American Type Culture Collection (VA, USA). […]
The body weight and the tumor diameter, determined by using a digital caliper, were measured twice a week. The tumor volume was calculated from the calculation formula for ellipsoid volume of (major axis×[minor axis]^2×0.5).
The results are expressed as the mean value (Mean)±standard error (SEM). […] Using the actual measured values of the tumor volume at each measurement time point, an unpaired statistical test (Student's t-test) of the difference between two groups was carried out between a single administration group and a combined use group. […]

[2] = biological target: T1, purified pig brain-derived tubulin (Sus scrofa, UniProt P02550+P02554); assay: Example 7: fluorescence-based assay of tubulin polymerization reaction; type: biochemical; conditions: paclitaxel final concentration 3 μmmol/L; 60 minutes after initiation; P<0.05
T1 construct: purified pig brain-derived tubulin (final concentration: 2 mg/mL); purchased Cytoskeleton, Inc. (Denver, Colo., USA); host or cells: pig brain (tissue-purified)
T1 sequence (P02554 whole entry): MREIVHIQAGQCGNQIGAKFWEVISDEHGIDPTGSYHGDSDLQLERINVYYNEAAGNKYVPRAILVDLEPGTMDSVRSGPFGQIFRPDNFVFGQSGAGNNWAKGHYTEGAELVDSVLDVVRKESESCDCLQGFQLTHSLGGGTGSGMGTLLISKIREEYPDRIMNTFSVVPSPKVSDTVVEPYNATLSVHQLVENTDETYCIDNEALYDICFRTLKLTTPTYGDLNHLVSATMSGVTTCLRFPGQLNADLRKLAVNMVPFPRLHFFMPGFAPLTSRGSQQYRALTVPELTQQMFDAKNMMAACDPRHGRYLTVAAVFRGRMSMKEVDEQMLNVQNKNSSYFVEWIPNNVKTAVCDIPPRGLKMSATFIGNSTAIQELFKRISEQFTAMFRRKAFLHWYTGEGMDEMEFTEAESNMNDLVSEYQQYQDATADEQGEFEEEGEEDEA
T1 sequence (P02550 whole entry): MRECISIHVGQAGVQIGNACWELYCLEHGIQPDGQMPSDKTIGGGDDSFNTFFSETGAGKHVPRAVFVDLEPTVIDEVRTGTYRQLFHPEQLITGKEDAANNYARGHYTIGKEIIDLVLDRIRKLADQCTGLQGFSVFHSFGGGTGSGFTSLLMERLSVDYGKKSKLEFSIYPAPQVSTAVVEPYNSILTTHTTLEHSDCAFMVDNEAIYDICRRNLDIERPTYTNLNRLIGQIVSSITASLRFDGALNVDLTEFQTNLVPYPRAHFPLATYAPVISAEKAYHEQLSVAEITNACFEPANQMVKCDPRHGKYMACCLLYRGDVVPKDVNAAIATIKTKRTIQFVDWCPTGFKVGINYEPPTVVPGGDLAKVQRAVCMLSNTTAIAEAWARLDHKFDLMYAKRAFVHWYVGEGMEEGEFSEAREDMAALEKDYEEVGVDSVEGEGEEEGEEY
Description: S-nitroso-N-acetyl-D,L-penicillamine (SNAP), which is a NO donor, was purchased from Cayman Chemical Co. (Ann Arbor, Mich., USA) and used. A tubulin polymerization analysis kit was purchased from Cytoskeleton, Inc. (Denver, Colo., USA) and used. For paclitaxel, a paclitaxel included in the analysis kit was used as paclitaxel. Docetaxel was purchased from Sigma-Aldrich Co. (St. Louis, Mo., USA) and was used as docetaxel.
A fluorescence-based assay of tubulin polymerization reaction was carried out according to the manufacturer's instruction of the kit. That is, purified pig brain-derived tubulin (final concentration: 2 mg/mL) and SNAP (final concentration: 200 or 500 μmol/L) were incubated at room temperature for 15 minutes or longer in the buffer solution included in the kit. Subsequently, paclitaxel (final concentration: 3 μmmol/L) or docetaxel (final concentration: 1 μmol/L), and […] (final concentration: 1 mmol/L) were added to this buffer mixture, and then was incubated for 60 minutes at 37° C. During this incubation, the fluorescence intensity (measurement wavelength: excitation 350 nm/fluorescence 435 nm) was measured every one minute by using a microplate reader (Spectramax, Molecular Devices, LLC, Sunnyvale, Calif., USA). The value of fluorescence intensity was expressed as a percentage relative to the SNAP and taxane-untreated group by using the value obtained 60 minutes after the initiation of the reaction, which corresponded to the equilibrium steady-state phase, and the average value for three experiments was taken as the value.
The results are expressed as the mean value (Mean)±standard error (SEM) of five independent experiments. A comparison between a paclitaxel- or docetaxel-treated group and an untreated group was carried out by an unpaired statistical test (Student's t-test) of the difference between two groups. A comparison between a SNAP-untreated group (control group) and SNAP-treated groups (200 μmol/L and 500 μmol/L) in the presence or absence of the taxane-family drugs was carried out by Dunnett's multiple comparison test. A difference value of less than 5% was considered to be statistically significant. For the data processing, Graphpad Prism version 5.03 was used.

Row | tubulin polymerization (fluorescence intensity) as compared with the taxane-untreated group [2] | SMILES | tumor volume reduction ratio compared with the docetaxel-only group ([1]; Day 27, P<0.062) | tumor volume reduction ratio compared with the docetaxel-only group ([1]; Day 51, P<0.05)
1 |  | O=C(/C=C/c1ccc(Cl)cc1)N[C@@H](Cc1ccccn1)C(=O)NCC(=O)N1CCC(Oc2cc(C(F)(F)F)ncn2)CC1 [FK330, N^2-[(2E)-3-(4-chlorophenyl)-2-propenoyl]-N-[2-oxo-2-(4-{[6-(trifluoromethyl)pyrimidin-4-yl]oxy}piperidin-1-yl)ethyl]-3-pyridin-2-yl-L-alaninamide] | 49.3% | 42.0%
2 | 152.7% | CC(=O)O[C@H]1C(=O)[C@@]2(C)[C@H]([C@H](OC(=O)c3ccccc3)[C@]3(O)C[C@H](OC(=O)[C@H](O)[C@@H](NC(=O)c4ccccc4)c4ccccc4)C(C)=C1C3(C)C)[C@]1(OC(C)=O)CO[C@@H]1C[C@@H]2O [paclitaxel, reference compound] |  | 
